One sequence from patent US7829528B2, “Compositions and methods for treating STAT-6 associated diseases or conditions” (The Rockefeller University, priority 2004, dated 2010) can be followed below.

The subject of test [1] is IL-13 mRNA. The test can be described thus: Semiquantitative RT-PCR of IL-13 mRNA in splenocytes. The format is cell-based, BALB/c mice. The settings on record: splenocytes cultured with ovalbumin plus peptide. The procedure:
The levels of mRNA encoding IL-4, IL-13 and IFN-gamma were also evaluated by semiquantitative RT-PCR analysis. Ovalbumin-induced expression of both IL-4 and IL-13 mRNA was inhibited in splenocytes cultured with the STAT-6-IP and not the STAT-6-CP. […] The number of CD4+ T cells producing IL-4 was also quantified by intracellular cytokine staining. When splenocytes from ovalbumin-sensitized mice were cultured with ovalbumin, there was a significant increase in the number of CD4+ lymphocytes expressing IL-4 (Table 4). The increase in IL-4 expression was abrogated in splenocytes cultured with ovalbumin in the presence of the STAT-6-IP, while the STAT-6-CP had no effect.
Reverse transcriptase (RT)-PCR was used to monitor expression of mRNAs encoding IL-4, IL-13 and IFN-gamma. Materials for RNA extraction and RT-PCR were purchased from INVITROGEN™ Canada (Burlington, Ontario). Total RNA was extracted from splenocytes, treated with DNAse, and 1 μg of RNA was reverse transcribed into cDNA using SUPERSCRIPT™ II reverse transcriptase. […] PCR products were resolved by gel electrophoresis and visualized and quantified on a FLUORCHEM™ 8000 Imaging System (Alpha Innotech, San Leandro, Calif.) using ALPHAEASE™ software (Alpha Innotech). […]

Test [2] deals with ovalbumin-sensitized mice. The test can be described thus: Allergen-induced accumulation of granulocytes in bronchoalveolar lavage (BAL) fluid. The format is in vivo, BALB/c mice. An excerpt: In the combined allergic rhinitis and asthma model, non-anaesthetized mice are locally sensitized with ovalbumin intranasally (i.n.), the primary route of allergen exposure in man (McCusker, et al. (2002) supra). Normal saline was used as a control. In both models sensitized mice produce ovalbumin-specific IgE and upon i.n. ovalbumin challenge, develop inflammation and eosinophilia in both the upper and lower airways as well as IL-13-dependent airway hyperresponsiveness (McCusker, et al. (2002) supra; Wang and McCusker (2005) Clin. Exp. Allergy 35(8):1104-11). Thus, in each model of allergic airway disease, the STAT-6-IP or control STAT-6-CP was given locally, i.n., to non-anaesthetized, ovalbumin-sensitized mice prior to each of five daily allergen challenges. Consistent with its ability to inhibit STAT-6-dependent activity in vitro, the STAT-6-IP inhibited allergen-induced accumulation of granulocytes in the lung, quantified in bronchoalveolar lavage (BAL) fluid, independent of the site of sensitization (Table 5).
Six-to-eight week-old male BALB/c mice were obtained from Harlan-Sprague Dawley (Indianapolis, Ind.) and were housed in a conventional animal facility. For each experimental condition, a minimum of 6-8 animals was used. Awake animals were sensitized five days per week for each of two weeks by instillation in each nostril of 5 μL 1% ovalbumin in PBS. Alternatively, animals were sensitized by two weekly systemic, i.p. injections of 0.025% ovalbumin mixed with 4 mg/mL Al(OH)3. Following two weeks rest, animals were challenged for five days by intranasal instillation of 1% ovalbumin. […] The tail vein was cannulated for drug administration and heart rate was monitored by EKG. […] Respiratory system resistance was measured. […] Methacholine was injected through the tail vein at dose of 10, 20, 40, 80, 160, 320 μg/kg and the maximal resistance and elastance were recorded. […] Six fields were counted, each encompassing 100 cells per slide, and means obtained.

Test [3] relates to IL-13. The test can be described thus: IL-13 in the BAL fluid (ELISA). The format is in vivo, BALB/c mice. Particulars: 150 μg peptide prior to each ovalbumin challenge; ovalbumin control 84.95, normal saline 55.67. The procedure:
Six-to-eight week-old male BALB/c mice were obtained from Harlan-Sprague Dawley (Indianapolis, Ind.) and were housed in a conventional animal facility. For each experimental condition, a minimum of 6-8 animals was used. Awake animals were sensitized five days per week for each of two weeks by instillation in each nostril of 5 μL 1% ovalbumin in PBS. Alternatively, animals were sensitized by two weekly systemic, i.p. injections of 0.025% ovalbumin mixed with 4 mg/mL Al(OH)3. Following two weeks rest, animals were challenged for five days by intranasal instillation of 1% ovalbumin. Animals treated with peptides received the STAT-6-IP (15, 50, or 150 μg) or STAT-6-CP (50 or 150 μg) in 10 μL PBS 30 minutes prior to each ovalbumin challenge. Twenty-four hours after the last ovalbumin challenge, mice were deeply anaesthetized with xylazine and sodium pentobarbital and paralyzed with pancuronium bromide. The tail vein was cannulated for drug administration and heart rate was monitored by EKG. […] Respiratory system resistance was measured. […] Methacholine was injected through the tail vein at dose of 10, 20, 40, 80, 160, 320 μg/kg and the maximal resistance and elastance were recorded. […] Six fields were counted, each encompassing 100 cells per slide, and means obtained.
For orientation: An ELISA detects its analyte on a solid surface through an enzyme-linked reagent.

Test [4] has as its system ovalbumin-sensitized mice. The test can be described thus: Airway hyperresponsiveness to methacholine (respiratory system resistance, FlexiVent). The format is in vivo, BALB/c mice. On the procedure:
Six-to-eight week-old male BALB/c mice were obtained from Harlan-Sprague Dawley (Indianapolis, Ind.) and were housed in a conventional animal facility. For each experimental condition, a minimum of 6-8 animals was used. Awake animals were sensitized five days per week for each of two weeks by instillation in each nostril of 5 μL 1% ovalbumin in PBS. Alternatively, animals were sensitized by two weekly systemic, i.p. injections of 0.025% ovalbumin mixed with 4 mg/mL Al(OH)3. Following two weeks rest, animals were challenged for five days by intranasal instillation of 1% ovalbumin. Animals treated with peptides received the STAT-6-IP (15, 50, or 150 μg) or STAT-6-CP (50 or 150 μg) in 10 μL PBS 30 minutes prior to each ovalbumin challenge. Twenty-four hours after the last ovalbumin challenge, mice were deeply anaesthetized with xylazine and sodium pentobarbital and paralyzed with pancuronium bromide. The tail vein was cannulated for drug administration and heart rate was monitored by EKG. The trachea was exposed, a cannula inserted and secured with silk ties and then attached to a computer-controlled small-animal ventilator (FlexiVent; SCIREQ, Montreal, Quebec). Mice were ventilated quasi-sinusoidally with a tidal volume of 8 mL/kg and respiratory rate of 150 breaths/minute. Respiratory system resistance was measured. Airway hyperresponsiveness was by low dose methacholine. Methacholine was injected through the tail vein at dose of 10, 20, 40, 80, 160, 320 μg/kg and the maximal resistance and elastance were recorded. Afterward, the trachea was isolated and a 22-gauge stainless steel catheter was inserted into the proximal trachea and secured with 4-0 silk suture. The lungs were lavaged using 0.5 mL of ice cold 0.9% NaCl. The bronchoalveolar lavage (BAL) fluid was centrifuged to remove intact cells and the supernatant stored at −20° C. for IL-13 analysis by ELISA. […] Six fields were counted, each encompassing 100 cells per slide, and means obtained.

Test [5] deals with ovalbumin-sensitized mice. Put plainly: Histology of lungs. The format is in vivo, BALB/c mice. The settings on record: compared with ovalbumin-sensitized and -challenged animals. On the procedure: Histology was performed according to established methods (McCusker, et al. (2002) supra). Briefly, lungs were slowly inflated with 1 mL of formalin, isolated, and placed entirely in formalin. The specimens were embedded in paraffin and […] sections prepared. Slides were stained with Giemsa and examined under standard light microscopy.

Where no end group is shown, it is not given here.

“YARAAARQARAGRGFVSTT [STAT-6-CP, STAT-6 Tyr-641 mutant, control peptide]”: the “Inhibition of ovalbumin-induced expression of IL-13 mRNA” value in test [1] is reported as “not”. The “Granulocytes/100 counted from BAL (±SEM)” value in test [2] (dose response, 150 μg peptide, ovalbumin control 22.33, normal saline 5.00) was 21.42 ± 1.56 Granulocytes/100 counted; in test [2] (i.n. ovalbumin sensitization, 50 microgram peptide i.n. prior to each ovalbumin challenge, ovalbumin control 26.73), 22.27 (±0.60) Granulocytes/100 counted; in test [2] (i.p. ovalbumin sensitization, 50 microgram peptide i.n. prior to each ovalbumin challenge, ovalbumin control 37.57), 34.75 (±0.68) Granulocytes/100 counted. In addition, in test [3], the “IL-13, pg/mL (±SEM), BAL fluid” value is on record as 75.75 (±5.60) pg/mL. The “Response Rmax (cm H2O × s/mL ± SEM)” value in test [4] (dose response, 150 μg peptide, ovalbumin control 2.02, normal saline 1.41) is 2.53 (±0.31) cm H2O × s/mL; in test [4] (i.n. ovalbumin sensitization, 50 microgram peptide, ovalbumin control 1.92, normal saline 1.19), 1.80 ± 0.07 cm H2O × s/mL; in test [4] (i.p. ovalbumin sensitization, 50 microgram peptide, ovalbumin control 1.87, normal saline 1.19) it was 1.85 ± 0.06 cm H2O × s/mL. Besides, the “Ovalbumin-induced lung inflammation, including airway eosinophilia (histology)” value in test [5] was “did not differ”.
